Source: patent US20260364030A1, “NOVEL SELECTIVE INHIBITORS OF LYSYL OXIDASES” (Syntara Limited, priority 2022, published 2026)
Like-named read-outs stand apart in the source and are kept apart here.

Tests used:
Format in all cases: biochemical
LOXL2 [1] = molecular target: T1, LOXL2 (Homo sapiens, UniProt Q9Y4K0); test: LOXL2 inhibition, Amplex Red oxidation assay
T1 sequence (Q9Y4K0 26-774): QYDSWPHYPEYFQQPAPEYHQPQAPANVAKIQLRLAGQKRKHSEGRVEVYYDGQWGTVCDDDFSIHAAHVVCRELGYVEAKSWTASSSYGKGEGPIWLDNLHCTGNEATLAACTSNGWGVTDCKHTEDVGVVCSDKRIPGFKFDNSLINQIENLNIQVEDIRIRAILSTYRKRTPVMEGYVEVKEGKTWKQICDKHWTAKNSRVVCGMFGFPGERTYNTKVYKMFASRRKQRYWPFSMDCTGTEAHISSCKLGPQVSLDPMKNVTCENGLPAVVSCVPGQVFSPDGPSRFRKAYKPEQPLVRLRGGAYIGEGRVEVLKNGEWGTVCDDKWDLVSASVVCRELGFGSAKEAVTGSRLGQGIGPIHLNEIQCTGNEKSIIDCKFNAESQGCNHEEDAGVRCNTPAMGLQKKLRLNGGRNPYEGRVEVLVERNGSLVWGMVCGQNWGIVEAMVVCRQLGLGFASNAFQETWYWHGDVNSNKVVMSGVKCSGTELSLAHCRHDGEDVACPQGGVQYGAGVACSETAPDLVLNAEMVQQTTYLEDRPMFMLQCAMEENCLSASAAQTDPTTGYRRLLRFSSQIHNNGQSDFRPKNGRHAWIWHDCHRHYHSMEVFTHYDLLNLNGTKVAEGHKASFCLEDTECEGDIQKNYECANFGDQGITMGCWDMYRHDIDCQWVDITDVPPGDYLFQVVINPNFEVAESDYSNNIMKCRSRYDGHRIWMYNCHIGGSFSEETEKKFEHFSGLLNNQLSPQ
Experimental: LOX and LOXL protein family members can be acquired as recombinant active proteins from commercial sources, or extracted from animal tissues like bovine aorta, tendons, pig skin; or prepared from cell cultures. The inhibitory effects of the compounds of the present invention were tested against the given LOX or LOXL preparation using a method based on the detection of hydrogen peroxide with an Amplex Red oxidation assay [Zhou et al, 1997]. The assay was developed using either 384 or 96 well format. Briefly, in a standard black, clear bottom 384 well plate assay 25 µL of a dilution of any of the isoenzymes and orthologues in 1.2 M urea, 50 mM sodium borate buffer (pH 8.2) were added into each well in the presence of […] and 0.5 mM pargyline (to inhibit SSAO and MAO-B and MAO-A, respectively; not necessary if the enzyme is from a recombinant or purified form). […] of a reaction mixture containing twice the KM concentration of putrescine (Sigma Aldrich, e.g. 20 mM for LOX and LOXL1 or 10 mM for LOXL2 and 4 mM for LOXL3 and LOXL4), 120 µM Amplex Red (Thermo Fisher Scientific) and 1.5 U/mL horseradish peroxidase (Sigma Aldrich) prepared in 1.2 M urea, 50 mM sodium borate buffer (pH 8.2) were then added to the corresponding wells. The above volumes were doubled in the case of 96 wells plate. The fluorescence (RFU) was read every 2.5 min for 30 min at 37 °C, excitation 544 nm and emission 590 (Optima; BMG labtech). The slope/min of the kinetics for each well was calculated using MARS data analysis software (BMG labtech) and this value was used to deduce the IC50 value (Dotmatics). The ability of the inventive compounds to inhibit the amine oxidase activity of LOX and other family members is shown in Table 5.

Human recombinant LOXL3 = Human recombinant LOXL3 (Homo sapiens, UniProt P58215); test: LOXL3 inhibition, Amplex Red oxidation assay; settings: 30 min incubation with enzyme at 37 °C
Human recombinant LOXL3, sequence (P58215 26-753): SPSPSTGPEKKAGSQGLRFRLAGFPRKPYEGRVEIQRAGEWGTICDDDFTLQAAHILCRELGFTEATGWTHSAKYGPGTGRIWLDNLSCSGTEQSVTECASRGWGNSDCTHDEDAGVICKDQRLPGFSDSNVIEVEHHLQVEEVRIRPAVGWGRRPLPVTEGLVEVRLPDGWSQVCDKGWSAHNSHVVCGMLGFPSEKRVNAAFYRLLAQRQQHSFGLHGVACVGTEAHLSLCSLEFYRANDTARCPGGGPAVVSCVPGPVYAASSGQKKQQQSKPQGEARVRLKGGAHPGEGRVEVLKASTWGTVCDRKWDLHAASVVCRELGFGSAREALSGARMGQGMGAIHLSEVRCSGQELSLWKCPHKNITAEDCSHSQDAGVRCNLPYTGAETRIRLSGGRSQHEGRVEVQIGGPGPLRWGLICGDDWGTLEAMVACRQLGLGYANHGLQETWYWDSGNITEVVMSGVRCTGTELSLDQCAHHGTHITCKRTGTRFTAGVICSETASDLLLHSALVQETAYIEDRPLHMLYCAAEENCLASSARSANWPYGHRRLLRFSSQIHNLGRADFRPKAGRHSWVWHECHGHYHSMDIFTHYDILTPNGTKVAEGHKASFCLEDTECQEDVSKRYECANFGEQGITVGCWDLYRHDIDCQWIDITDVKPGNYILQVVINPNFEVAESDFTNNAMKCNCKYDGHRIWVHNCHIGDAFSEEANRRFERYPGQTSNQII
Experimental: (§1) LOX and LOXL protein family members can be acquired as recombinant active proteins from commercial sources, or extracted from animal tissues like bovine aorta, tendons, pig skin; or prepared from cell cultures. The inhibitory effects of the compounds of the present invention were tested against the given LOX or LOXL preparation using a method based on the detection of hydrogen peroxide with an Amplex Red oxidation assay [Zhou et al, 1997]. The assay was developed using either 384 or 96 well format. Briefly, in a standard black, clear bottom 384 well plate assay 25 µL of a dilution of any of the isoenzymes and orthologues in 1.2 M urea, 50 mM sodium borate buffer (pH 8.2) were added into each well in the presence of […] and 0.5 mM pargyline (to inhibit SSAO and MAO-B and MAO-A, respectively; not necessary if the enzyme is from a recombinant or purified form). Test compounds were dissolved in DMSO and tested in a Concentration Response Curve (CRC) with 11 data points, typically in the micromolar or nanomolar range after incubation with the enzyme for 30 min at 37 °C. […] The fluorescence (RFU) was read every 2.5 min for 30 min at 37 °C, excitation 544 nm and emission 590 (Optima; BMG labtech). The slope/min of the kinetics for each well was calculated using MARS data analysis software (BMG labtech) and this value was used to deduce the IC50 value (Dotmatics). […]

Human recombinant LOXL4 = Human recombinant LOXL4 (Homo sapiens, UniProt Q96JB6); test: LOXL4 inhibition, Amplex Red oxidation assay; settings: 30 min incubation with enzyme at 37 °C
Human recombinant LOXL4, sequence (Q96JB6 25-756): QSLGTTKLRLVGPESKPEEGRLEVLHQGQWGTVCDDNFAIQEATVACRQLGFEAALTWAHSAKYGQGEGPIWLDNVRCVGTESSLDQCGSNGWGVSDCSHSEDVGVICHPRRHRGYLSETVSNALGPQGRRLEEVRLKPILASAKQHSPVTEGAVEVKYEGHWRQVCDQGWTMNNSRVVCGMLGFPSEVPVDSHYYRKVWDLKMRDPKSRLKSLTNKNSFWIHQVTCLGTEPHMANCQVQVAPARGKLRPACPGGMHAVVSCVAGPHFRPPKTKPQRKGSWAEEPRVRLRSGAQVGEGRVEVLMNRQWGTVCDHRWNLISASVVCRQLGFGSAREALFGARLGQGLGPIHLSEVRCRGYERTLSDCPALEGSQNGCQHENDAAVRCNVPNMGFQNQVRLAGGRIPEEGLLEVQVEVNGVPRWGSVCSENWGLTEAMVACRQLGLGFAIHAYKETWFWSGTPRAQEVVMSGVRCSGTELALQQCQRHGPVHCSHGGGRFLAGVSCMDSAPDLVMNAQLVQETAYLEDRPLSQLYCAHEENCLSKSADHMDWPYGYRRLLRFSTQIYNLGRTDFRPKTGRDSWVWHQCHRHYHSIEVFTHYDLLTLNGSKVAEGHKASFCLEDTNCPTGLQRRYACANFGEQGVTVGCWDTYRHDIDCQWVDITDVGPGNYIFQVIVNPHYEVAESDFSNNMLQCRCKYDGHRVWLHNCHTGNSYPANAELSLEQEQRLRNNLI
Experimental: as §1

LOXL2 [2] = molecular target: T1, LOXL2; test: Jump dilution experiment, sustained inhibition of LOXL2; settings: for LOXL2 enzyme activity recovery: at 21-30 min after jump dilution, 10×IC50, 40 min preincubation at 37 °C; for Sustained inhibition of LOXL2: jump dilution, 21-30 min
Experimental: Jump Dilution experiment: The assay was developed using a 96 well format and the starting enzyme concentration was set 100 times higher than for the inhibition studies. The enzyme was incubated for 40 minutes at 37 °C in presence of 10×IC50 concentrations of the test inhibitor. After the incubation, the mixture was diluted 50x in assay buffer, followed by a further 2× dilution in Amplex Red-horseradish peroxidase-putrescine reaction mix (as for Example 2) prior to the fluorescence measurement. Results were expressed in % recovery of the signal at 21-30 min by comparison with non-inhibited controls. LOXL1 is used as a surrogate for LOX owing to similar pharmacological behaviour.

[3] = 30 min incubation with enzyme at 37 °C, read-out: Human recombinant LOXL2 Activity IC50

| Compound | IC50 (LOXL2 [1]; [3]) | IC50 (Human recombinant LOXL3) | IC50 (Human recombinant LOXL4) | LOXL2 enzyme activity recovery (LOXL2 [2]) | Sustained inhibition of LOXL2 (LOXL2 [2]) | IC50 (LOXL2 [1]; 2 h incubation with enzyme at 37 °C, read-out: Human LOXL2 Activity IC50) |
| --- | --- | --- | --- | --- | --- | --- |
| N#CCCN [BAPN, β-aminopropionitrile, reference compound] | 400 nM | 500 nM | 300 nM | 11.2% | sustained inhibition |  |
| NC/C(=C\F)CS(=O)(=O)c1ccccc1 [Compound 1, (E)-3-fluoro-2-((phenylsulfonyl)methyl)prop-2-en-1-amine] | 4800 nM | 5900 nM | 4700 nM | 2.5% | sustained inhibition | < 2000 nM |
